Columns and labels:
Cln2 mRNA = Cln2 mRNA expression by semi-quantitative RT-PCR and real-time PCR in mouse primary astrocytes; format: cell-based
Protocol: Astroglia were isolated from mixed glial cultures as described (17,18) according to the procedure of Giulian and Baker (19). Briefly, on day 9, the mixed glial cultures were washed three times with Dulbecco's modified Eagle's medium/F-12 and subjected to shaking at 240 rpm for 2 h at 37° C. on a rotary shaker to remove microglia. After 2 days, the shaking was repeated for 24 h for the removal of oligodendroglia and to ensure the complete removal of all nonastroglial cells. The attached cells were seeded onto new plates for further studies. Total RNA was isolated from mouse primary astrocytes and human primary astrocytes using RNA-Easy Qiagen (Valencia, Calif.) kit following manufactures protocol. Semi-quantitative RT-PCR was carried out as described earlier (24) using oligo (dT) 12-18 as primer and moloney murine leukemia virus reverse transcriptase (MMLV-RT, Invitrogen) in a 20 μl reaction mixture. The resulting cDNA was appropriately amplified using Promega Master Mix (Madison, Wis.) and the following primers (Invitrogen) for murine genes: The mRNA quantification was performed using the ABI-Prism7700 sequence detection system (Applied Biosystems, Foster City, Calif.) using iTaq™ Fast Supermix With ROX (Bio-Rad, Hercules, Calif.) and the following 6-FAM/ZEN/IBFQ-labeled primers for murine genes: Cln2 and Gapdh (Integrated DNA Technologies Coralville, Iowa). The mRNA expression of the targeted genes was normalized to the level of Gapdh mRNA and data was processed by the ABI Sequence Detection System 1.6 software.

TPP1 = experiment: Western blot and densitometric analysis of TPP1 in mouse primary astrocytes; format: cell-based
Protocol: Astroglia were isolated from mixed glial cultures as described (17,18) according to the procedure of Giulian and Baker (19). Briefly, on day 9, the mixed glial cultures were washed three times with Dulbecco's modified Eagle's medium/F-12 and subjected to shaking at 240 rpm for 2 h at 37° C. on a rotary shaker to remove microglia. After 2 days, the shaking was repeated for 24 h for the removal of oligodendroglia and to ensure the complete removal of all nonastroglial cells. The attached cells were seeded onto new plates for further studies.
Western blotting was conducted as described earlier (27,28) with modifications. Briefly, cells were scraped in double-distilled H20 and sodium dodecyl sulfate (SDS), electrophoresed on NuPAGE® Novex® 4-12% Bis-Tris gels (Invitrogen) and proteins transferred onto a nitrocellulose membrane (Bio-Rad) using the Thermo-Pierce Fast Semi-Dry Blotter. The membrane was then washed for 15 min in TBS plus Tween 20 (TBST) and blocked for 1 hr in TBST containing BSA. Next, membranes were incubated overnight at 4° C. under shaking conditions with the following 1° antibodies; TPP1 (1:250, Santa Cruz), β-actin (1:800; Abcam, Cambridge, Mass. The next day, membranes were washed in TBST for 1 hr, incubated in 2° antibodies against 1° antibody hosts (all 1:10,000; Jackson ImmunoResearch) for 1 hr at room temperature, washed for one more hour and visualized under the Odyssey® Infrared Imaging System (Li-COR, Lincoln, Nebr.).
Protein blots were analyzed using ImageJ (NIH, Bethesda, Md.) and bands were normalized to their respective β-actin loading controls. Data are representative of the average fold change with respect to control for three independent experiments.

CC1=C(/C=C/C(C)=C/C=C/C(C)=C/C(=O)O)C(C)(C)CCC1 [RA, all-trans retinoic acid]
Cln2 level (quantitative real time PCR) (Cln2 mRNA; astrocytes with RXRα knockdown (RXRα siRNA), gemfibrozil (10 μM), RA (0.5 μM) alone and in combination): almost unresponsive
increase in Cln2 mRNA levels (quantitative real time PCR) (Cln2 mRNA; mouse primary astrocytes, 24 hrs, RA 0.5 μM, gemfibrozil 10 μM, combination 10 μM gemfibrozil and 0.5 μM RA): about 3.5 fold
induction of TPP1 (immunoblot) (TPP1; PPARα−/− astrocytes, RA (0.5 μM) and combination of gemfibrozil (10 μM) and RA (0.5 μM)): neither RA alone nor the combination could induce TPP1
TPP1 levels (Western blot, densitometric analysis) (TPP1; RXRα siRNA transfected astrocytes, gemfibrozil (10 μM), RA (0.5 μM) alone and in combination): almost no enhancement
